Assay results: patent publication US4879421A, “Method for preparing optically active binaphthol and spiroibiindanol” (General Electric Company, priority 1988, dated 1989)

Molecular target: T1, cholesterol esterase (Bos taurus, UniProt P30122)
T1 construct: assayed with taurocholate in ether/phosphate emulsion
T1 sequence (P30122 19-597): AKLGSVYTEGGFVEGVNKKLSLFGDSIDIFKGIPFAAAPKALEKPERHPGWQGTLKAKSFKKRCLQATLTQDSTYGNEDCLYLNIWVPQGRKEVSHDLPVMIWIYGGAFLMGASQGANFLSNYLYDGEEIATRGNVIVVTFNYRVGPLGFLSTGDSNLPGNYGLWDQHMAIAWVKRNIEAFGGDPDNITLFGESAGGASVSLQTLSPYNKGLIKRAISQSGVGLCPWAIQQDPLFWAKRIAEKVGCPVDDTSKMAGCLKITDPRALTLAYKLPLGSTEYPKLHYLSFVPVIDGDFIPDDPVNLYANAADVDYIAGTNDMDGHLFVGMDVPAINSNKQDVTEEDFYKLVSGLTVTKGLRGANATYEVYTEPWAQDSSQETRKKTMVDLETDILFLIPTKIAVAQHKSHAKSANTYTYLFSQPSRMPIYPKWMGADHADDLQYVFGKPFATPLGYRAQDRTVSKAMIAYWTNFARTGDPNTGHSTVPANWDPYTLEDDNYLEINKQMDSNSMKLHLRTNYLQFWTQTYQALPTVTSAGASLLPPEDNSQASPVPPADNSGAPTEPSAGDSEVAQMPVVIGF
Test: Cholesterol esterase catalyzed hydrolysis of esters, relative rate by pH stat
Type: biochemical
Conditions: commercial cholesterol esterase, 0.1 N NaOH to hold pH 7.0, emulsion of ester (1.0 mmol) in ethyl ether (10 mL) and 10 mM phosphate buffer pH 7.0 with 30 mg sodium taurocholate
Protocol: In similar manner as Example 2 commercial samples of cholesterol esterase are shown to catalyze the enantiospecific hydrolysis of diesters of 1,1'-bi-2-naphthol listed in the following Table.
^(a) The relative rate of hydrolysis is measured using a pH stat whic
measures the amount of base (0.1 N NaOH) required to maintain the pH at
7.0 for an emulsion of ester (1.0 mmol) dissolved in ethyl ether (10
milliliter) and aqueous buffer (10 milliliters of 10 mM phosphate, pH 7.0
containing 30 milligrams sodium taurocholate).

Relative Rate (relative rate of hydrolysis)	SMILES
1.1	CCC(=O)Oc1ccc2ccccc2c1-c1c(OC(=O)CC)ccc2ccccc12
0.5	CCCC(=O)Oc1ccc2ccccc2c1-c1c(OC(=O)CCC)ccc2ccccc12 [Butyrate]
1.1	CC(=O)Oc1ccc2ccccc2c1-c1c(OC(C)=O)ccc2ccccc12 [acetate]
0.5	CCCCCC(=O)Oc1ccc2ccccc2c1-c1c(OC(=O)CCCCC)ccc2ccccc12 [hexanoate]
0.4	CCCCCCCC(=O)Oc1ccc2ccccc2c1-c1c(OC(=O)CCCCCCC)ccc2ccccc12 [octanoate]

SMILES	Relative Rate (relative rate of hydrolysis)
CC(=O)O[C@H]1CC[C@@]2(C)C(=CC[C@H]3[C@@H]4CC[C@H]([C@H](C)CCCC(C)C)[C@@]4(C)CC[C@@H]32)C1 [reference compound]	1.0
